According to publication PMC11428108 (Frontiers in Molecular Neuroscience, 2024):
Several values for one entry are separate records, joined by “and”; a condition that tells them apart may be missing. Identical values can stand only once. Entries after “also recorded” stand apart in the source; their conditions may differ. Like-named read-outs stand apart in the source and are kept apart here.

Columns and labels:
[1] = system: Chrna5^+/+ and Chrna5^−/− mice; assay: Open-field locomotor activity, SR9883 alone or with nicotine; type: in vivo; settings: for Cumulative distance traveled during 60 min session: SR9883 5 or 10 mg kg^−1 IP
Experimental: Locomotor activity was assessed in an open-field apparatus (40 cm × 40 cm; Omnitech Electronics Inc.) under low illumination (~30 radiometric lux). Mice were habituated to the apparatus for 60 min on the day before treatments commenced. On test days, mice received a total of two systemic injections. First, mice were injected intraperitoneally with SR9883 (0, 5, 10 mg kg^−1) and returned to their home cages. […] Mice were then placed in the center of the apparatus and the total distance they traveled was recorded for 60 min (Fusion software, Omnitech Electronics Inc.). Concentration-response curves of SR9883 actions in nAChR-expressing HEK cells and oocytes were fitted to the Hill equation using a nonlinear least squares curve fit method and efficacy and potency values were calculated as previously described ([Wang et al., 2015]). Plasma and brain levels of SR9983 after oral administration were compared using a two-tailed paired t test. […] For the ICSS threshold experiment, percentages of baseline reward threshold scores were calculated by expressing the absolute threshold scores as a percentage of the scores obtained during baseline. The baseline values were the mean thresholds on the three sessions prior to drug injections. Response latency data were analyzed in the same manner as the threshold data. […] Effects of SR9883 on responding for food pellets in rats was analyzed by a two-tailed paired t test. […] Significant main or interaction effects in ANOVAs were followed by Bonferroni or Newman–Keuls post-hoc tests as appropriate. All statistical analyses were performed using GraphPad Prism software with α set to 0.05.

[2] = Brain penetration: plasma and brain levels 120 min after oral dosing; type: in vivo, C57BL/6J mice; settings: C57BL/6J, mouse, 20 mg kg^−1 PO
Experimental: Mice prepared with intravenous catheters and treated with SR9883 via oral (10 mg kg^−1) or intravenous (1 mg kg^−1) routes of administration. Blood samples were collected up to 240 min after treatment into lithium heparin coated tubes (Ram Scientific) and stored on wet ice. Blood samples were later centrifuged for 3 min at 5,000 RPM to separate plasma from red blood cells. Plasma was collected into a fresh tube and stored at −80°C. A separate group of mice was treated with SR9883 (20 mg kg^−1 PO) and killed by cervical dislocation 120 min later. Their brains were collected and stored at −80°C. SR9883 levels were quantified in plasma and brain by mass spectrometry using an ABSciex 5,500 instrument and using multiple reaction monitoring as previously described ([Radnai et al., 2021]). Brain samples were homogenized in saline and then immediately treated with twice the amount (v:v) of acetonitrile to extract the compound. Plasma samples were directly treated with acetonitrile. Samples were filtered through a 0.2 μm filter plate prior to injection onto the LC–MS/MS as previously described ([Radnai et al., 2021]).

[3] = target: T1, human (α4)2(β2)2β3 nAChRs (Homo sapiens, UniProt P17787+P43681+Q05901); assay: FLEXstation membrane potential assay in HEK cells stably expressing (α4)2(β2)2β3 nAChRs; type: cell-based; settings: ±SEM
T1 construct: expressed in transfected cells
T1 sequence (P43681 29-627 limits assumed): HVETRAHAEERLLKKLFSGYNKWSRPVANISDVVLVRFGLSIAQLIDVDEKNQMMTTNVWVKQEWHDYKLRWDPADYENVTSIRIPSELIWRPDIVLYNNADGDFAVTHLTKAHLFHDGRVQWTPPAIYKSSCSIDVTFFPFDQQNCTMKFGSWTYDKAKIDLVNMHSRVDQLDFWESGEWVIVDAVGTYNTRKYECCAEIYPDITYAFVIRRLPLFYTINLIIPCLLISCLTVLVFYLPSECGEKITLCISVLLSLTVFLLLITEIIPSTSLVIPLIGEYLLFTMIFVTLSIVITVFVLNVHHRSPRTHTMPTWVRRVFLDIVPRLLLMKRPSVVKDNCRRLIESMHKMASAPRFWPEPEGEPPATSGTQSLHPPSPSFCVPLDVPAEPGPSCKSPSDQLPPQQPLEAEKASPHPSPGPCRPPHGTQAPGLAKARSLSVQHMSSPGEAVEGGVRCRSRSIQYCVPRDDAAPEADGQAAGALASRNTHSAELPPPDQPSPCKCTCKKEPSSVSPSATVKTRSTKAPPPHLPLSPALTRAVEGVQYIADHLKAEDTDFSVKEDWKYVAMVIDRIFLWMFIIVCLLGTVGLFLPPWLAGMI
T1 sequence (P17787 26-502): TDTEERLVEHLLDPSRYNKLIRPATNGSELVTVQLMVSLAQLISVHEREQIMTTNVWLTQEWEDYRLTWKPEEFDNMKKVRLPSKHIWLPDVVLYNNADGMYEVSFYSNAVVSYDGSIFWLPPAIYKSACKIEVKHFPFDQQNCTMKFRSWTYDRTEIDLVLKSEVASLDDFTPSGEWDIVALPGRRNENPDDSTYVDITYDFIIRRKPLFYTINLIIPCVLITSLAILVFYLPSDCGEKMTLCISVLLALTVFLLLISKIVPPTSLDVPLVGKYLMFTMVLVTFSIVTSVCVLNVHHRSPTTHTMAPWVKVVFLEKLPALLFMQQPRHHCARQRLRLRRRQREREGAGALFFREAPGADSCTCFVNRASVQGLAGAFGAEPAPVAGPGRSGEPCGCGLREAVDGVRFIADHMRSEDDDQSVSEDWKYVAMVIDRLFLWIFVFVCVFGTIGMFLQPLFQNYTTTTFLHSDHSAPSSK
T1 sequence (Q05901 25-458 limits assumed): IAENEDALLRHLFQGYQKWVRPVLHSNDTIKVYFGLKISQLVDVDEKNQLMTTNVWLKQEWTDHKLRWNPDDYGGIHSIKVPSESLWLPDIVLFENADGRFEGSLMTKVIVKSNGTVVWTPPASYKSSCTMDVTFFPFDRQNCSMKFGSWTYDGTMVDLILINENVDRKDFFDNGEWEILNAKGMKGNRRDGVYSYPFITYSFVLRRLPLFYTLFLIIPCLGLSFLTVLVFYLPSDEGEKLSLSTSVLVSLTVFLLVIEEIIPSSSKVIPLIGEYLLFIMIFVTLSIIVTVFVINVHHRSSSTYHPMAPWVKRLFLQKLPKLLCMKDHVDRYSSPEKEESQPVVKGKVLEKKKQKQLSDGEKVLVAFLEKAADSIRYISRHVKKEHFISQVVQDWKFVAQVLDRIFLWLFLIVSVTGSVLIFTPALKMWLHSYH
From the text: Human embryonic kidney (HEK) cell lines stably expressing human (α4)2(β2)2β2/α4 (α4β2*) nAChRs, (α4)2(β2)2α5 nAChRs, (α4)2(β2)2β3 nAChRs, (α3)2(β4)2α3/β4 (α3β4*) nAChRs, (α3)2(β2)2α3/β2 (α3β2*) nAChRs, (α3)2(β4)2α5 nAChRs, or (α3)2(β2)2α5 nAChRs were maintained as described previously ([Wang et al., 2015]; [Kuryatov et al., 2005]; [Caligiuri et al., 2022]). The FLEXstation bench top scanning fluorometer from Molecular Devices was used to assay nAChR function in these cells, according to published protocols ([Wang et al., 2015]; [Kuryatov et al., 2005]). The membrane potential kit (Molecular Devices) was used according to the manufacturer’s protocols. Serial dilutions of SR9883 were manually added to the assay plate 15 min prior to recording. […] Compound dilutions were prepared in V-shaped 96-well plates (Fisher Scientific Co.) and added to cell culture wells at a rate of 20 μL s^−1 during recording. Cells were incubated at 29°C for 6–20 h prior to assays to upregulate nAChRs ([Wang et al., 2015]; [Kuryatov et al., 2005]). Data points were averaged from 3 to 4 responses from separate wells. Potency and efficacy were calculated using the Hill equation as described previously ([Wang et al., 2015]).
Concentration-response curves of SR9883 actions in nAChR-expressing HEK cells and oocytes were fitted to the Hill equation using a nonlinear least squares curve fit method and efficacy and potency values were calculated as previously described ([Wang et al., 2015]). Plasma and brain levels of SR9983 after oral administration were compared using a two-tailed paired t test. […] For the ICSS threshold experiment, percentages of baseline reward threshold scores were calculated by expressing the absolute threshold scores as a percentage of the scores obtained during baseline. The baseline values were the mean thresholds on the three sessions prior to drug injections. Response latency data were analyzed in the same manner as the threshold data. […] Effects of SR9883 on responding for food pellets in rats was analyzed by a two-tailed paired t test. […]

[4] = system: human (α3)2(β4)2α3/β4 (α3β4*) nAChRs; assay: FLEXstation membrane potential assay in HEK cells stably expressing α3β4* nAChRs; type: cell-based; settings: SR9883 0.0005–10 μM
From the text: Human embryonic kidney (HEK) cell lines stably expressing human (α4)2(β2)2β2/α4 (α4β2*) nAChRs, (α4)2(β2)2α5 nAChRs, (α4)2(β2)2β3 nAChRs, (α3)2(β4)2α3/β4 (α3β4*) nAChRs, (α3)2(β2)2α3/β2 (α3β2*) nAChRs, (α3)2(β4)2α5 nAChRs, or (α3)2(β2)2α5 nAChRs were maintained as described previously ([Wang et al., 2015]; [Kuryatov et al., 2005]; [Caligiuri et al., 2022]). The FLEXstation bench top scanning fluorometer from Molecular Devices was used to assay nAChR function in these cells, according to published protocols ([Wang et al., 2015]; [Kuryatov et al., 2005]). The membrane potential kit (Molecular Devices) was used according to the manufacturer’s protocols. Serial dilutions of SR9883 were manually added to the assay plate 15 min prior to recording. […] Potency and efficacy were calculated using the Hill equation as described previously ([Wang et al., 2015]).
Concentration-response curves of SR9883 actions in nAChR-expressing HEK cells and oocytes were fitted to the Hill equation using a nonlinear least squares curve fit method and efficacy and potency values were calculated as previously described ([Wang et al., 2015]). […] For the ICSS threshold experiment, percentages of baseline reward threshold scores were calculated by expressing the absolute threshold scores as a percentage of the scores obtained during baseline. […] Response latency data were analyzed in the same manner as the threshold data. […]

concentration at 120 min ([2]; brain, read-out: Brain SR9883 level): ~4.5 µM and ~1100 ng/mL | concentration at 120 min ([2]; plasma, read-out: Plasma SR9883 level): ~2600 ng/mL and ~11 µM | EC50 ([3]; SR9883 0.0005–10 μM on response to EC20-30 nicotine, HEK cells): 224 ± 149 nM | nHill ([3]; SR9883 0.0005–10 μM on response to EC20-30 nicotine): 0.8567 ± 0.3792 | Efficacy ([3]; response to EC20-30 nicotine with SR9883 relative to nicotine alone): 96.44 ± 15.93% | EC50 (enhancement of response to EC20-30 nicotine) [4]: no effect; also recorded: No enhancement
SMILES: N#Cc1cccc(-n2nnc(-c3cccnc3)n2)c1 [SR9883, 3-(5-(pyridin-3-yl)-2H-tetrazol-2-yl)benzonitrile]
Locomotor activity (total distance traveled) vs vehicle ([1]; SR9883 5 mg kg^−1, nicotine-injected Chrna5^+/+ and Chrna5^−/− mice, p = 0.0002): reduced | Locomotor activity (total distance traveled) vs vehicle ([1]; SR9883 10 mg kg^−1, nicotine-injected Chrna5^+/+ and Chrna5^−/− mice, p = 0.0049): reduced | Cumulative distance traveled during 60 min session ([1]; nicotine (0.25 mg kg^−1 SC)-injected Chrna5^+/+ mice, Dose x Time p = 0.0047): decreased | Cumulative distance traveled during 60 min session ([1]; nicotine (0.25 mg kg^−1 SC)-injected Chrna5^−/− mice, Dose x Time p = 0.0946, not significant): tended to be decreased | Cumulative distance traveled during 60 min session ([1]; saline-injected Chrna5^+/+ mice): unchanged | Cumulative distance traveled during 60 min session ([1]; saline-injected Chrna5^−/− mice): unchanged
